Test results as given in patent US9580399B2, “Geranyl flavonoid derivative with improved water solubility, a method for preparing the same, and a method for treating cancer using the same” (KOREA RESEARCH INSTITUTE OF BIOSCIENCE AND BIOTECHNOLOGY, priority 2014, dated 2017).
Converted amounts (≈) assume the structure as drawn.

What was measured:
[1] = Physicochemical properties: solubility; conditions: for Solubility: Insolubility: solvents in which insoluble; for Solubility: Fusibility: solvents in which soluble
[2] = test system: various human cancer cell lines; assay: Cancer cell growth inhibition (WST-1), all cell lines together; format: cell-based
Protocol: To investigate whether or not the geranyl flavonoid derivative of the present invention had cancer cell growth inhibiting effect, various human cancer cell lines were treated with CG-901-2 and then cancer cell growth was observed. Particularly, the human breast cancer cell lines MDA-MB-231 and MDA-MB-468, the prostate cancer cell line DU-145, the colorectal cancer cell line HCT116, the pancreatic cancer cell line AsPC-3, or the colon cancer cell line SW620 was distributed in 10% FBS medium, followed by culture in a 37° C. 5% CO2 incubator. The attached grown cells were collected by using trypsin-EDTA. The obtained cells were counted by hematocytometer, which were distributed in 96-well plate at the density of 5,000 cells/well (MDA-MB-231, MDA-MB-468, and DU-145) or at the density of 7,000 cells/well (HCT116 and SW620). 10% FBS medium was added to the plate, followed by culture in a 37° C. 5% CO2 incubator. 24 hours later, the cells were treated with the compound CG-901-2 prepared in Example <1-2> dissolved in DMSO at the concentration of 20 or 50 μg/ml. The negative control was treated with 0.1% DMSO. The cells were further cultured for 24 more hours. […] Then, OD450 was measured with ELISA reader (Bio-Rad) to investigate the time-dependent cancer cell growth rate. […]

cyclin A = assay: Western blotting of STAT3 target protein expression in DU-145 cells; format: cell-based, human; conditions: DU-145, 20 μM
Protocol: (§1) To investigate the changes of the expression of STAT3 target genes according to the decrease of STAT3 protein phosphorylation caused by the treatment of geranyl flavonoid derivative CG901-2, the expressions of cyclin A that is well known as a STAT3 target protein, Mcl-1 (Induced myeloid leukemia cell differentiation protein-1), and survivin were examined. Particularly, DU-145 cells were treated with the compound CG-901-2 at the concentration of 20 μM by the same manner as described in Example <2-1>, followed by culture. Western blotting was performed to investigate the expressions of AD (cyclin A), Mcl-1, and survivin. β-actin was used as the control to compare the expression levels.

Mcl-1 = assay: as above; format: cell-based, human; conditions: DU-145, 20 μM
Protocol: as §1

survivin = assay: as above; format: cell-based, human; conditions: DU-145, 20 μM
Protocol: as §1

STAT3 = molecular target: T1, STAT3 (Homo sapiens, UniProt P40763); assay: Western blotting of STAT3 expression and phosphorylation in DU-145 cells; format: cell-based; conditions: DU-145, 5, 10 or 20 μM, 24 hours
T1 construct: the prostate cancer cell line DU-145 was distributed in three 60-mm plates; endogenous in cells; host or cells: DU-145 prostate cancer cells
T1 sequence (P40763 whole entry): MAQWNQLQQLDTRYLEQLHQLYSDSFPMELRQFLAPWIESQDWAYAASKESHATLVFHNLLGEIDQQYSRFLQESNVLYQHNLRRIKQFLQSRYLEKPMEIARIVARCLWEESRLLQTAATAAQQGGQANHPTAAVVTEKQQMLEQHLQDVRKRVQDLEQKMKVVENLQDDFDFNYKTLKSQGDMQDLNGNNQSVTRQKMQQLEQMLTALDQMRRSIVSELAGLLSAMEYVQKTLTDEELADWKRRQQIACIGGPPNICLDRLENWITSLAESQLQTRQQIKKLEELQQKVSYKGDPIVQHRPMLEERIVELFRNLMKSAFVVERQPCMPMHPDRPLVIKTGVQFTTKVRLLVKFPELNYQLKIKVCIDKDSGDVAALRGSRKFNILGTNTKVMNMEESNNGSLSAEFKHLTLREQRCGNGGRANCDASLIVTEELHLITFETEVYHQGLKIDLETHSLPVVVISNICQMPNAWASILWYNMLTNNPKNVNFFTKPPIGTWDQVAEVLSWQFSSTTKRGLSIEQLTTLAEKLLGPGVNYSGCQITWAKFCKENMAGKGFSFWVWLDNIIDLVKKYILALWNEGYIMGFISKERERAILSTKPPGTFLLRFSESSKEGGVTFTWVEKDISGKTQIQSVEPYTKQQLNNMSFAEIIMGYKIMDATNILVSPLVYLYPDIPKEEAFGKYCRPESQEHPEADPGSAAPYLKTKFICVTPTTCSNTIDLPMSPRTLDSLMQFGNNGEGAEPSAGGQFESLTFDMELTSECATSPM
Protocol: To investigate whether or not the novel synthesized geranyl flavonoid derivative of the present invention, CG-901-2, had the activity of inhibiting STAT3 protein activity by inhibiting STAT3 phosphorylation, Western blotting was performed to measure the expression of the phosphorylated STAT3. Particularly, the prostate cancer cell line DU-145 was distributed in three 60-mm plates containing 10% FBS (fetal bovine serum) medium at the density of 80,000 cells/plate, followed by culture in a 37° C. 5% CO2 incubator for 24 hours. Upon completion of the culture, the CG-901-2 compound prepared in Example <1-2> was treated to each plate at the concentration of 5, 10, or 20 μM. The negative control was treated with 0.25% DMSO, followed by culture for 24 hours. Then, the medium was discarded from each plate. The plate was then washed with PBS, to which 200 μl of Ripa lysis buffer was added. The cells attached on the plate were collected by using a scraper. […] The lysate mixture was placed in a 96-well plate, and […] was measured using ELISA reader in order to quantify the protein. After the quantification, the lysate containing the equal amount of protein was prepared, which was mixed with lysis buffer and 5× dye, leading to the preparation of a loading sample. […]

DU-145 tumor = assay: In vivo tumor growth inhibition in prostate cancer mouse model; conditions: 50 mg/kg oral, once a day, 10 times, compared with negative control
Protocol: Particularly, the human originated prostate cancer cell line DU-145 was inoculated in the serum-free medium, followed by culture in a 37° C. 5% CO2 incubator. The cultured DU-145 cells were prepared at the density of 3×10^7 cells/ml. Each BALB/c specific pathogen free female mouse (Nara Biotech Co.) at 6 weeks was administered with the cells at the dose of 9×10^6 cells/0.3 ml via subcutaneous injection in the auxiliary region between the right shoulder and breast wall, leading to the cancer cell transplantation. After the transplantation, the mouse was raised for 25 days until the generated tumor induced by the transplanted cancer cells grew to a measurable size. As a result, the prostate cancer mouse model was constructed. The tumor induced by the transplanted cancer cells was measured in three dimensions which were length, width, and height of the tumor, by using a vernier caliper, […], and the size of the tumor was calculated by the below mathematical formula 1. […] The tumor size was measured on day 0, day 10, day 14, day 16, day 18, day 21, day 23, and day 25. […] The size and weight of the control tumor was measured and compared with the above.

[3] = Cancer cell growth inhibition (WST-1); format: cell-based; conditions: Homo sapiens; Prostate cancer, 24 hours
Protocol: (§2) To investigate whether or not the geranyl flavonoid derivative of the present invention had cancer cell growth inhibiting effect, various human cancer cell lines were treated with CG-901-2 and then cancer cell growth was observed. Particularly, the human breast cancer cell lines MDA-MB-231 and MDA-MB-468, the prostate cancer cell line DU-145, the colorectal cancer cell line HCT116, the pancreatic cancer cell line AsPC-3, or the colon cancer cell line SW620 was distributed in 10% FBS medium, followed by culture in a 37° C. 5% CO2 incubator. The attached grown cells were collected by using trypsin-EDTA. The obtained cells were counted by hematocytometer, which were distributed in 96-well plate at the density of 5,000 cells/well (MDA-MB-231, MDA-MB-468, and DU-145) or at the density of 7,000 cells/well (HCT116 and SW620). 10% FBS medium was added to the plate, followed by culture in a 37° C. 5% CO2 incubator. 24 hours later, the cells were treated with the compound CG-901-2 prepared in Example <1-2> dissolved in DMSO at the concentration of 20 or 50 μg/ml. The negative control was treated with 0.1% DMSO. The cells were further cultured for 24 more hours. Then, 10 μl of the coloring agent, 2-[4-iodophenyl]-3-[4-nitrophenyl]-5-[2,4-disulfophenyl]-2H-tetrazolium (monosodium salt, WST-1; Roche) was treated to the cultured cells, followed by culture for 2 hours. Then, OD450 was measured with ELISA reader (Bio-Rad) to investigate the time-dependent cancer cell growth rate. For 24 hours from the treatment of the compound, the concentration of the compound that allowed only 50% of cancer cell population to survive was calculated based on the above growth rate, and the result was defined as GI50.

MDA-MB-468 = assay: Cancer cell growth inhibition (WST-1); format: cell-based; conditions: Homo sapiens, Breast cancer, 24 hours
Protocol: as §2

SW620 = assay: Cancer cell growth inhibition (WST-1); format: cell-based; conditions: Homo sapiens, SW-620; Colon cancer, 24 hours
Protocol: as §2

HCT116 = assay: Cancer cell growth inhibition (WST-1); format: cell-based; conditions: Homo sapiens, HCT-116; Colorectal cancer, 24 hours
Protocol: as §2

CC(C)=CCC[C@]1(C)C=Cc2c(CCC(=O)c3ccc(OCCN(C)C)cc3O)ccc(O)c2O1 [CG-901-1, (R)-1-(4-(2-(dimethylamino)ethoxy)-2-hydroxyphenyl)-3-(8-hydroxy-2-methyl-2-(4-methylpent-3-enyl)-2H-chromen-5-yl)propan-1-one]
Solubility: Insolubility [1]: Hexane
Solubility: Fusibility [1]: Alcohol, DMSO
solubility ([1]; water): 300 µM (≈ 144 µg/mL)

CC(C)=CCC[C@]1(C)C=Cc2c(CCC(=O)c3ccc(OCCN(C)C)cc3O)ccc(O)c2O1.Cl [CG-901-2, (R)-2-(3-hydroxy-4-(3-(8-hydroxy-2-methyl-2-(4-methylpent-3-enyl)-2H-chromen-5-yl)propanoyl)phenoxy)-N,N-dimethylethanaminium chloride]
GI50 ([2]; Homo sapiens, MDA-MB-231, MDA-MB-468, DU-145, HCT116, AsPC-3, SW620, read-out: GI50 concentration range of each cancer cell line): 15 to 30 µM
cancer cell growth rate ([2]; compared with negative control): reduced over the time
expression of cyclin A (cyclin A): down-regulated
expression of Mcl-1 (Mcl-1): down-regulated
expression of survivin (survivin): down-regulated
expression of STAT3 (STAT3): not changed
phosphorylation of STAT3 (STAT3): reduced CG-901-2 dose-dependently
tumor size growth inhibited (DU-145 tumor): approximately 38.8%
weight of the tumor reduced (DU-145 tumor; day 25): 40.5%
GI50 [3]: 20 µM
GI50 (MDA-MB-468): 30 µM
GI50 (SW620): 50 µM
GI50 (HCT116): 25 µM
Solubility: Insolubility [1]: Hexane, Ethylacetate
Solubility: Fusibility [1]: Alcohol, H2O
